Tested on: 766 cancer cell lines
Experiment: Large-scale cell-line viability measurements (766 cancer cell lines, 72 h, AUC)
Assay type: cell-based, human
Experimental: Cell lines were treated for 72 hours with concentrations ranging from 66.4 μM-2 nM in 2-fold step dilutions.
To characterize cellular sensitivity to DNMDP further, 766 genomically characterized cancer cell lines were screened for DMNDP sensitivity at concentrations ranging from 66.4 μM to 2 nM in 2-fold dilution steps for 72 hours. From these cell lines, 22 cell lines were categorized as sensitive with a robust Z-score lower than −4, which represented multiple lineages including multiple melanoma cell lines, amongst others (Table 1).
The sensitivity of […] cancer cell lines (CCLs) was measured drawn from 23 different lineages to DNMDP. Each cell line was plated in its preferred media in white opaque 1536-plates at a density of 500 cells/well. After incubating overnight, DNMDP was added by acoustic transfer at 16 concentrations ranging from 66.4 μM-2 nM in 2-fold steps in duplicate (Labcyte Echo 555, Labcyte Inc., Sunnyvale, Calif.). After 72 hours treatment, cellular ATP levels were measured as a surrogate for viability (CELLTITERGLO®, Promega Corporation, Madison, Wis.) according to manufacturer's protocols using a ViewLux Microplate Imager (PerkinElmer, Waltham, Mass.) and normalized to background (media-only) and vehicle (DMSO)-treated control wells.
Concentration response curves were fit using nonlinear fits to 2- or 3-parameter sigmoid functions through all 16 concentrations with the low-concentration asymptote set to the DMSO-normalized value, and an optimal 8-point dose curve spanning the range of compound-sensitivity was identified. The area under the 8-point dose curve (AUC) was computed by numeric integration as a metric for sensitivity for further analysis. Similar sensitivity measurements have been obtained for a collection of 480 other compounds, enabling analyses that identify cell lines responding uniquely to DNMDP (see Broad Institute Cancer Therapeutics Response Portal, a dataset to identify comprehensively relationships between genetic and lineage features of human cancer cell lines and small-molecule sensitivities for complete list of compounds).

[1] = ALLSIL (HAEMATOPOIETIC AND LYMPHOID TISSUE), 72 hours
[2] = BICR6 (UPPER AERODIGESTIVE TRACT), 72 hours
[3] = DKMG (CENTRAL NERVOUS SYSTEM), 72 hours
[4] = DND41 (HAEMATOPOIETIC AND LYMPHOID TISSUE), 72 hours
[5] = EJM (HAEMATOPOIETIC AND LYMPHOID TISSUE), 72 hours
[6] = GB1 (CENTRAL NERVOUS SYSTEM), 72 hours
[7] = GOS3 (CENTRAL NERVOUS SYSTEM), 72 hours
[8] = GRANTA519 (HAEMATOPOIETIC AND LYMPHOID TISSUE), 72 hours
[9] = HEL9217 (HAEMATOPOIETIC AND LYMPHOID TISSUE), 72 hours
[10] = HUT78 (HAEMATOPOIETIC AND LYMPHOID TISSUE), 72 hours
[11] = KCL22 (HAEMATOPOIETIC AND LYMPHOID TISSUE), 72 hours
[12] = KMM1 (HAEMATOPOIETIC AND LYMPHOID TISSUE), 72 hours
[13] = KMS11 (HAEMATOPOIETIC AND LYMPHOID TISSUE), 72 hours
[14] = KMS12BM (HAEMATOPOIETIC AND LYMPHOID TISSUE), 72 hours
[15] = KMS20 (HAEMATOPOIETIC AND LYMPHOID TISSUE), 72 hours
[16] = KMS28BM (HAEMATOPOIETIC AND LYMPHOID TISSUE), 72 hours
[17] = KMS34 (HAEMATOPOIETIC AND LYMPHOID TISSUE), 72 hours
[18] = KO52 (HAEMATOPOIETIC AND LYMPHOID TISSUE), 72 hours
[19] = L540 (HAEMATOPOIETIC AND LYMPHOID TISSUE), 72 hours
[20] = L1236 (HAEMATOPOIETIC AND LYMPHOID TISSUE), 72 hours
[21] = LAMA84 (HAEMATOPOIETIC AND LYMPHOID TISSUE), 72 hours
[22] = LNCAPCLONEFGC (PROSTATE), 72 hours
[23] = LP1 (HAEMATOPOIETIC AND LYMPHOID TISSUE), 72 hours

CCN(CC)c1ccc(C2=NNC(=O)CC2C)cc1[N+](=O)[O-] (centres unmarked) [DNMDP, 6-(4-(diethylamino)-3-nitrophenyl)-5-methyl-4,5-dihydropyridazin-3(2H)-one]
number of cell lines categorized as sensitive (robust Z-score lower than −4) (766 cell lines, 66.4 μM to 2 nM, 72 hours): 22 cell lines
share of cell lines with nanomolar efficacy (766 genomically-characterized cancer cell lines): about 3%
DNMDP AUC (A549 (LUNG), 72 hours): 5.9509
Robust Z-score (A549 (LUNG), 72 hours): −0.7177
DNMDP AUC [1]: 5.8724
Robust Z-score [1]: −0.8001
DNMDP AUC [2]: 5.8837
Robust Z-score [2]: −0.7882
DNMDP AUC (BT549 (BREAST), 72 hours): 5.9226
Robust Z-score (BT549 (BREAST), 72 hours): −0.7474
DNMDP AUC (C32 (SKIN), 72 hours): 6.1786
Robust Z-score (C32 (SKIN), 72 hours): −0.4787
DNMDP AUC (CAL54 (KIDNEY), 72 hours): 6.1949
Robust Z-score (CAL54 (KIDNEY), 72 hours): −0.4616
DNMDP AUC (COLO668 (LUNG), 72 hours): 5.9969
Robust Z-score (COLO668 (LUNG), 72 hours): −0.6694
DNMDP AUC (COLO679 (SKIN), 72 hours): 5.9634
Robust Z-score (COLO679 (SKIN), 72 hours): −0.7046
DNMDP AUC (COLO800 (SKIN), 72 hours): 6.1272
Robust Z-score (COLO800 (SKIN), 72 hours): −0.5326
DNMDP AUC (CORL51 (LUNG), 72 hours): 0.5944
Robust Z-score (CORL51 (LUNG), 72 hours): −6.34
DNMDP AUC (COV362 (OVARY), 72 hours): 5.6913
Robust Z-score (COV362 (OVARY), 72 hours): −0.9902
DNMDP AUC [3]: 1.7217
Robust Z-score [3]: −5.157
DNMDP AUC (DMS53 (LUNG), 72 hours): 6.2061
Robust Z-score (DMS53 (LUNG), 72 hours): −0.4498
DNMDP AUC [4]: 6.1979
Robust Z-score [4]: −0.4584
DNMDP AUC (DU145 (PROSTATE), 72 hours): 5.7825
Robust Z-score (DU145 (PROSTATE), 72 hours): −0.8945
DNMDP AUC (DV90 (LUNG), 72 hours): 6.1676
Robust Z-score (DV90 (LUNG), 72 hours): −0.4902
DNMDP AUC (ECGI10 (OESOPHAGUS), 72 hours): 6.2151
Robust Z-score (ECGI10 (OESOPHAGUS), 72 hours): −0.4404
DNMDP AUC [5]: 6.1782
Robust Z-score [5]: −0.4791
DNMDP AUC (EPLC272H (LUNG), 72 hours): 6.0469
Robust Z-score (EPLC272H (LUNG), 72 hours): −0.6169
DNMDP AUC (G402 (SOFT TISSUE), 72 hours): 6.0606
Robust Z-score (G402 (SOFT TISSUE), 72 hours): −0.6026
DNMDP AUC [6]: 1.8269
Robust Z-score [6]: −5.046
DNMDP AUC [7]: 6.2076
Robust Z-score [7]: −0.4483
DNMDP AUC [8]: 5.8937
Robust Z-score [8]: −0.7777
DNMDP AUC (GSU (STOMACH), 72 hours): 6.1172
Robust Z-score (GSU (STOMACH), 72 hours): −0.5431
DNMDP AUC (HCC1395 (BREAST), 72 hours): 5.9716
Robust Z-score (HCC1395 (BREAST), 72 hours): −0.696
DNMDP AUC (HCC1419 (BREAST), 72 hours): 5.7835
Robust Z-score (HCC1419 (BREAST), 72 hours): −0.8934
DNMDP AUC (HCC1428 (BREAST), 72 hours): 5.9402
Robust Z-score (HCC1428 (BREAST), 72 hours): −0.7289
DNMDP AUC (HCC1500 (BREAST), 72 hours): 5.9451
Robust Z-score (HCC1500 (BREAST), 72 hours): −0.7238
DNMDP AUC [9]: 0.75
Robust Z-score [9]: −6.177
DNMDP AUC (HS888T (BONE), 72 hours): 5.8353
Robust Z-score (HS888T (BONE), 72 hours): −0.839
DNMDP AUC [10]: 1.5307
Robust Z-score [10]: −5.357
DNMDP AUC (IALM (LUNG), 72 hours): 5.775
Robust Z-score (IALM (LUNG), 72 hours): −0.9023
DNMDP AUC (JHH4 (LIVER), 72 hours): 5.71
Robust Z-score (JHH4 (LIVER), 72 hours): −0.9706
DNMDP AUC [11]: 5.9598
Robust Z-score [11]: −0.7084
DNMDP AUC [12]: 6.1723
Robust Z-score [12]: −0.4853
DNMDP AUC [13]: 6.2008
Robust Z-score [13]: −0.4554
DNMDP AUC [14]: 6.0135
Robust Z-score [14]: −0.652
DNMDP AUC [15]: 6.0542
Robust Z-score [15]: −0.6093
DNMDP AUC [16]: 5.9369
Robust Z-score [16]: −0.7324
DNMDP AUC [17]: 5.8799
Robust Z-score [17]: −0.7922
DNMDP AUC [18]: 6.2174
Robust Z-score [18]: −0.438
DNMDP AUC (KYSE410 (OESOPHAGUS), 72 hours): 6.0741
Robust Z-score (KYSE410 (OESOPHAGUS), 72 hours): −0.5884
DNMDP AUC [19]: 6.0807
Robust Z-score [19]: −0.5815
DNMDP AUC [20]: 6.0853
Robust Z-score [20]: −0.5766
DNMDP AUC [21]: 5.8201
Robust Z-score [21]: −0.855
DNMDP AUC (LMSU (STOMACH), 72 hours): 6.0528
Robust Z-score (LMSU (STOMACH), 72 hours): −0.6107
DNMDP AUC [22]: 5.7557
Robust Z-score [22]: −0.9226
DNMDP AUC (LOUNH91 (LUNG), 72 hours): 5.9793
Robust Z-score (LOUNH91 (LUNG), 72 hours): −0.6879
DNMDP AUC [23]: 6.1029
Robust Z-score [23]: −0.5582
DNMDP AUC (LU99 (LUNG), 72 hours): 5.8016

Reference: patent US11207320B2, “Compositions and methods for cancer expressing PDE3A or SLFN12” (The Broad Institute, Inc., priority 2015, dated 2021)
